According to the C3SDB collision cross section collection:
Several values for one entry are separate records, joined by “and”; a condition that tells them apart may be missing. Identical values can stand only once. Counter-ions that a name gives are not always drawn.

Conditions: instrument: DT, single field, calibrated with ESI Low Concentration Tuning Mix (Agilent)

Structure (SMILES)	collision cross section (N2) ([M+H]+)	collision cross section (N2) ([M+Na]+)	collision cross section (N2) ([M-H]-)	other results
C[C@H](CCC(=O)NCC(=O)O)[C@H]1CC[C@H]2[C@@H]3[C@H](O)C[C@@H]4C[C@H](O)CC[C@]4(C)[C@H]3C[C@H](O)[C@]12C [GLYCOCHOLATE]	199.7 Å²	202.2 Å²	202.2 Å²	collision cross section (N2) ([M+K]+): 208 Å²
O=C(O)CNC(=O)c1ccccc1 [HIPPURATE]	–	149.6 Å²	142 Å²	–
NC(CCO)C(=O)O (stereo unspecified) [HOMOSERINE]	125.9 Å²	–	120.2 Å²	–
COc1cc(CC(=O)O)ccc1O [HOMOVANILLATE]	–	146.2 Å²	136 Å²	–
O=C(O)C(O)Cc1ccc(O)cc1 (stereo unspecified) [HYDROXYPHENYLLACTATE]	–	144.2 Å²	141.9 Å²	–
O=C(O)Cc1c[nH]c2ccccc12 [INDOLE-3-ACETATE]	135.9 Å²	143.5 Å²	–	–
O=S(=O)(O)Oc1c[nH]c2ccccc12 [INDOXYL SULFATE]	–	–	143.3 Å²	–
O=c1nc[nH]c2c1ncn2[C@@H]1O[C@H](COP(=O)(O)OP(=O)(O)O)[C@@H](O)[C@H]1O [INOSINE 5'-DIPHOSPHATE]	186.6 Å²	184 Å²	–	collision cross section (N2) ([M+Na-2H]-): 180 Å²
O=c1nc[nH]c2c1ncn2[C@@H]1O[C@H](COP(=O)(O)OP(=O)(O)OP(=O)(O)O)[C@@H](O)[C@H]1O [INOSINE TRIPHOSPHATE]	193.6 Å²	197 Å²	189.2 Å²	collision cross section (N2) ([M+Na-2H]-): 182.8 Å²
O=C(O)c1cc(=O)c2ccccc2[nH]1 [KYNURENATE]	136.7 Å²	151.1 Å²	133.9 Å²	–
C[N+](C)(C)C[C@H](O)CC(=O)[O-] [L-CARNITINE]	132.9 Å²	–	–	–
NCCC[C@H](N)C(=O)O [L-ORNITHINE]	127.7 Å²	–	–	–
OC[C@H]1O[C@@H](O[C@H]2[C@H](O)[C@@H](O)[C@H](O)O[C@@H]2CO)[C@H](O)[C@@H](O)[C@H]1O [LACTOSE]	–	175.3 Å²	176.9 Å²	collision cross section (N2) ([M+K]+): 178.6 Å²
C[C@H](CCC(=O)NCCS(=O)(=O)O)[C@H]1CC[C@H]2[C@@H]3CC[C@@H]4C[C@H](O)CC[C@]4(C)[C@H]3CC[C@]12C [LITHOCHOLYLTAURINE]	–	213.1 Å²	206.6 Å²	–
NCCCC[C@H](N)C(=O)O [LYSINE]	131.2 Å² and 131.4 Å²	135.5 Å²	133.5 Å² and 133.7 Å²	–
OC1OC[C@@H](O)[C@H](O)[C@@H]1O (stereo partly specified) [LYXOSE]	–	136.8 Å²	–	–
CSC[C@H]1O[C@@H](n2cnc3c(N)ncnc32)[C@H](O)[C@@H]1O [METHYLTHIOADENOSINE]	162.5 Å² and 170.7 Å²	172.4 Å²	166.9 Å²	–
CC(=O)NCCCNCCCCNCCCN [N1-ACETYLSPERMINE]	158 Å²	162 Å²	–	–
CC(=O)N[C@@H](CC(=O)O)C(=O)O [N-ACETYLASPARTATE]	–	139.3 Å²	131 Å²	–

Structure (SMILES)	collision cross section (N2) ([M+H]+)	collision cross section (N2) ([M+Na]+)	collision cross section (N2) ([M-H]-)	other results
CC(=O)N[C@@H](CS)C(=O)O [N-ACETYLCYSTEINE]	–	140.9 Å²	–	–
CC(=O)NCC(=O)O [N-ACETYLGLYCINE]	–	133 Å²	–	–
CSCC[C@H](NC(C)=O)C(=O)O [N-ACETYLMETHIONINE]	–	150.1 Å²	142.6 Å²	–
CC(=O)NC(Cc1ccccc1)C(=O)O (stereo unspecified) [N-ACETYLPHENYLALANINE]	–	149.4 Å²	146.9 Å²	–
CSCC[C@H](NC=O)C(=O)O [N-FORMYL-L-METHIONINE]	–	145.3 Å²	136.1 Å²	–
NC(=O)C1=CN([C@@H]2O[C@H](COP(=O)(O)OP(=O)(O)OC[C@H]3O[C@@H](n4cnc5c(N)ncnc54)[C@H](OP(=O)(O)O)[C@@H]3O)[C@@H](O)[C@H]2O)C=CC1 [NADPH]	–	–	246.7 Å²	collision cross section (N2) ([M+Na-H]+): 240.5 Å²; collision cross section (N2) ([M+]+): 232.2 Å²
NC(=O)c1ccc[n+]([C@@H]2O[C@H](COP(=O)(O)OP(=O)(O)OC[C@H]3O[C@@H](n4cnc5c(N)ncnc54)[C@H](OP(=O)(O)O)[C@@H]3O)[C@@H](O)[C@H]2O)c1 [NADP]	232.6 Å²	240.9 Å²	230.7 Å² and 230.9 Å²	collision cross section (N2) ([M+H2O-H]-): 243.9 Å²; collision cross section (N2) ([M+Na-2H]-): 231.5 Å² and 231.8 Å²
CCCCCCCC/C=C\CCCCCCCCCCCCCC(=O)[O-] [NERVONATE]	–	204.4 Å²	197.5 Å²	–
NC(=O)c1ccc[n+]([C@@H]2O[C@H](COP(=O)([O-])O)[C@@H](O)[C@H]2O)c1 [NICOTINAMIDE MONONUCLEOTIDE]	166 Å²	–	–	–
Nc1ncnc2c1ncn2[C@@H]1O[C@H](COP(=O)(O)OP(=O)([O-])OC[C@H]2O[C@@H]([n+]3cccc(C(=O)O)c3)[C@H](O)[C@@H]2O)[C@@H](O)[C@H]1OP(=O)(O)O [NICOTINIC ACID ADENINE DINUCLEOTIDE PHOSPHATE]	230.4 Å²	–	230.3 Å²	–
NC[C@H](O)c1ccc(O)c(O)c1 [NORADRENALINE]	–	–	134.2 Å²	collision cross section (N2) ([M-H2O+H]+): 137.2 Å²
CCCC[C@H](N)C(=O)O [NORLEUCINE]	136 Å²	–	132 Å²	–
NCCCNCCCN [NORSPERMIDINE]	127.6 Å²	132.4 Å²	–	–
CC(=O)OC[C@H](N)C(=O)O [O-ACETYLSERINE]	130.5 Å²	–	–	–
NCCOP(=O)(O)O [O-PHOSPHOETHANOLAMINE]	–	–	123.2 Å²	–
N[C@@H](COP(=O)(O)O)C(=O)O [O-PHOSPHOSERINE]	–	140.8 Å²	–	–
N[C@@H](CCOC(=O)CCC(=O)O)C(=O)O [O-SUCCINYL-HOMOSERINE]	145.9 Å²	145.7 Å²	–	collision cross section (N2) ([M+Na-2H]-): 145.8 Å²
O=C(O)CCC(=O)C(=O)O [OXOGLUTARATE]	–	–	120.9 Å²	–
NC[C@H](O)c1ccc(O)cc1 [P-OCTOPAMINE]	–	147.3 Å²	–	–

Structure (SMILES)	collision cross section (N2) ([M+H]+)	collision cross section (N2) ([M+Na]+)	collision cross section (N2) ([M-H]-)	other results
CCCCCCCCCCCCCCCC(=O)O [PALMITATE]	–	173.2 Å²	–	–
CC(C)(CO)[C@@H](O)C(=O)NCCC(=O)O [PANTOTHENATE]	129.9 Å²	–	–	–
CCCCCCCCCCC/C=C\CCCCC(=O)[O-] [PETROSELINATE]	–	–	175.6 Å²	–
N[C@@H](COP(=O)(O)O)C(=O)O [PHOSPHOSERINE]	–	–	127.5 Å²	collision cross section (N2) ([M+Na-2H]-): 135.1 Å²
O=P(O)(O)OC1C(OP(=O)(O)O)C(OP(=O)(O)O)C(OP(=O)(O)O)C(OP(=O)(O)O)C1OP(=O)(O)O (stereo unspecified) [PHYTATE]	215.8 Å²	–	195.4 Å²	collision cross section (N2) ([M+Na-2H]-): 201.3 Å²
O=C(O)C1CCCCN1 (stereo unspecified) [PIPECOLATE]	127.7 Å² and 128 Å²	138.8 Å² and 139.4 Å²	128.3 Å² and 128.9 Å²	–
c1ncc2[nH]cnc2n1 [PURINE]	121.9 Å²	–	114.3 Å²	–
Cc1ncc(CO)c(C=O)c1O [PYRIDOXAL]	131.4 Å²	142.8 Å²	129 Å²	–
O=C(O)c1ccc[nH]1 [PYRROLE-2-CARBOXYLATE]	–	–	113.8 Å²	–
O=C(O)c1cccnc1C(=O)O [QUINOLINATE]	132.3 Å²	–	126.6 Å²	–
OC[C@H]1O[C@H](OC[C@H]2O[C@H](O[C@]3(CO)O[C@H](CO)[C@@H](O)[C@@H]3O)[C@H](O)[C@@H](O)[C@@H]2O)[C@H](O)[C@@H](O)[C@H]1O [RAFFINOSE]	–	208.9 Å²	197.3 Å²	–
C[C@@H]1OC(O)[C@H](O)[C@H](O)[C@H]1O (stereo partly specified) [RHAMNOSE]	–	142.6 Å²	–	–
OC1OC[C@@H](O)[C@@H](O)[C@H]1O (stereo partly specified) [RIBOSE]	–	135.2 Å²	–	–
O=C(/C=C/c1ccc(O)c(O)c1)O[C@@H](Cc1ccc(O)c(O)c1)C(=O)O [ROSMARINATE]	–	–	172.7 Å²	–
C[C@@H]1NCCc2cc(O)c(O)cc21 [SALSOLINOL]	142.7 Å²	–	139.4 Å²	–
NCC[Se][Se]CCN [SELENOCYSTAMINE]	135.6 Å²	138.6 Å²	–	–
OC[C@@H](O)[C@@H](O)[C@H](O)[C@@H](O)CO [SORBITOL]	–	142.9 Å²	131.4 Å²	–
OCC1(O)OC[C@H](O)[C@@H](O)[C@@H]1O (stereo partly specified) [SORBOSE]	–	139.4 Å² and 143.3 Å²	–	–
NCCCCNCCCN [SPERMIDINE]	131.4 Å² and 131.6 Å²	136.1 Å² and 136.5 Å²	–	–
